Results published in patent US8476081B2, “Assay for evaluating affinity and specificity of ligand-albumin binding” (Janssen Pharmaceutica NV, priority 2009, dated 2013).
pIC50, pKd: −log10 of the molar value. Where two headings read alike, the source gives them in different places.

What was measured:
[1] = biological target: Human Serum Albumin (HSA) (Homo sapiens, UniProt P02768); test: ThermoFluor thermal shift assay with human serum albumin
Protocol: (§1) 1× reaction mixture of about 50 μg/mL human serum albumin, about 4 μM 1,8-ANS, about 150 mM NaCl, about 25 mM PIPES, pH 7.2, and about 0.002% Tween®-20 was prepared.
(§2) To prevent evaporation, about 1 μL of silicone oil was added to the plate using multichannel pipettors.
The plates were loaded onto a ThermoFluor® device and heated from about 25° C. to about 95° C. at a ramp-rate of about 1° C. per minute. Fluorescence was measured by continuous illumination with UV light (Hamamatsu LC6) via fiber optic and filtered through a band-pass filter of about 390±10 nm; >6 OD cutoff. Fluorescence emissions were detected by measuring light intensity using a CCD camera (Sensys, Roper Scientific) filtered to detect about 500±25 nm; >6 OD cutoff. This allows for the entire plate to be simultaneously monitored and each sample to be independently monitored. One or more images were collected at an interval of every about 0.5° C. to about 1° C. The sum of the pixel intensity at a given area of the plate was recorded vs. temperature.
(§3) The values of Tm, ΔH, yF,Tm, mF, yU,Tm and mU were calculated for each sample according to Equation 9. Further, the value of Tm over the compound concentration was used to calculate the binding constant (KD) using Equation 10b. A shift in the denaturation curve of albumin indicates whether the compound binds to albumin, and the value of KD indicates the binding strength of compounds to albumin. A shift of the fluorescence signal indicates the specificity of compounds to albumin, and the value of IC50 indicates the binding strength to the site I (Equation 11).
(§4) The compounds and 1× reaction mixture were dispensed and measured for the fluorescence value using the plate-based reader Tecan® Safire II. Then the plate was heated in a ThermoFluor® system and measured for fluorescence value and the thermal shift value. The fluorescence values were measured twice by both plate reader and ThermoFluor®. The fluorescence value obtained from ThermoFluor® was used for qualitative assessment whereas those from the plate reader was used for quantitative assessment. The value of IC50 was determined by the fluorescence obtained from the plate reader and was fit using Equation 11 described above. The value of KD was determined by the readings from ThermoFluor® and was fit using Equation 10b described above.

[2] = biological target: Human Serum Albumin (HSA) site I (Homo sapiens, UniProt P02768); test: 1,8-ANS site-specific probe displacement (fluorescence) from HSA site I; conditions: for % Displacement: percent displacement of the site-specific probe 1,8-ANS at the second highest concentration of test ligand; for Fluorescent Signal: initial 1,8-ANS fluorescence as % of fluorescence without compound
Human Serum Albumin (HSA) site I, sequence (P02768 25-609): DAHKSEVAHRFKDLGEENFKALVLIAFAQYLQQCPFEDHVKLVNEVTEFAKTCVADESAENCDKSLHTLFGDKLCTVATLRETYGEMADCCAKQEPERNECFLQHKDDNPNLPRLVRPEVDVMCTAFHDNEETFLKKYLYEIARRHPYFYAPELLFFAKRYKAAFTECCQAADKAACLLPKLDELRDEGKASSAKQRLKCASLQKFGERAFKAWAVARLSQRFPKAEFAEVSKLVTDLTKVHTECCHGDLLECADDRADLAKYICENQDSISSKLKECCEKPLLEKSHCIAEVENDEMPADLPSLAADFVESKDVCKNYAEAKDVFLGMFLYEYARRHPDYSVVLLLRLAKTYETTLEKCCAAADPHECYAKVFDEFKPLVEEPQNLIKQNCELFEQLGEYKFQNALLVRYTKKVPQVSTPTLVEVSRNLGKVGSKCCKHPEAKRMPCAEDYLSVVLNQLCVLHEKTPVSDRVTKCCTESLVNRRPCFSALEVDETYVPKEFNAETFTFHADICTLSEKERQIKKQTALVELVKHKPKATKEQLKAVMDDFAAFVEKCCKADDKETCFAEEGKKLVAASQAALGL
Source text: In addition to the thermal shift assay, the assay test plate may be utilized in a separate fluorescence measurement using a plate-based reader that is compatible with any relevant wavelengths. The preferred plate-based reader is Tecan Satire II. The displacement of site-specific probe such as 1,8-ANS from albumin site 1 by test ligand may cause a decrease in observed fluorescence that may be fit to Equation 11 to determine the value of IC50.
Additionally, the percent displacement may be determined by (y−yhigh), divided by the difference of low (y0) and high endpoints (yhigh), wherein y is determined at the second highest concentration.
as §1, §2, §3, §4

[3] = biological target: T1, Bovine Serum Albumin (BSA) (Bos taurus, UniProt P02769); test: ThermoFluor thermal shift assay with bovine serum albumin; type: binding
T1 construct: The above albumins were prepared using method IV of Cohn et al. (J. Am. Chem. Soc. 69: 1753-1761, 1947) and purified with 1× crystallization; purchased Sigma A-7638
T1 sequence (P02769 25-607): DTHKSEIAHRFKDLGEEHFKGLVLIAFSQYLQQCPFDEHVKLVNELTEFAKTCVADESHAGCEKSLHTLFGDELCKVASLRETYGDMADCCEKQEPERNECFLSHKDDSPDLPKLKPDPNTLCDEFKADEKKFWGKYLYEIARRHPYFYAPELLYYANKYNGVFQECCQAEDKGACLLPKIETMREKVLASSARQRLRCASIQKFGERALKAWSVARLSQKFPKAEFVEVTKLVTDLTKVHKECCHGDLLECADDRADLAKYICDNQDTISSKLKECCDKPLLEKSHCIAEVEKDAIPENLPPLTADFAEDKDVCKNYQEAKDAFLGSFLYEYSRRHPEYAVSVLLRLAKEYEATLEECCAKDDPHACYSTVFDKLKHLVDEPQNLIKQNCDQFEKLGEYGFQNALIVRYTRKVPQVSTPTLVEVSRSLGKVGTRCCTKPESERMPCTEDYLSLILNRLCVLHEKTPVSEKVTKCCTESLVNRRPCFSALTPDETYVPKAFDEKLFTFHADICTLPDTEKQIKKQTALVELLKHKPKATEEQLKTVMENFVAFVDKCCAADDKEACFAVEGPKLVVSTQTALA
Source text: (§5) To evaluate the bioavailability of a compound in various species, the compound's affinity and specificity to albumins from human, bovine, rat, and mouse were examined. […] The resulting 1× reaction mixture comprising human serum albumin, bovine serum albumin, rat serum albumin, or mouse serum albumin was used with a panel of compounds in the binding assay.

[4] = biological target: T2, Rat Serum Albumin (Rattus norvegicus, UniProt P02770); test: ThermoFluor thermal shift assay with rat serum albumin; type: binding
T2 construct: The above albumins were prepared using method IV of Cohn et al. (J. Am. Chem. Soc. 69: 1753-1761, 1947) and purified with 1× crystallization; purchased Sigma A-6414
T2 sequence (P02770 25-608): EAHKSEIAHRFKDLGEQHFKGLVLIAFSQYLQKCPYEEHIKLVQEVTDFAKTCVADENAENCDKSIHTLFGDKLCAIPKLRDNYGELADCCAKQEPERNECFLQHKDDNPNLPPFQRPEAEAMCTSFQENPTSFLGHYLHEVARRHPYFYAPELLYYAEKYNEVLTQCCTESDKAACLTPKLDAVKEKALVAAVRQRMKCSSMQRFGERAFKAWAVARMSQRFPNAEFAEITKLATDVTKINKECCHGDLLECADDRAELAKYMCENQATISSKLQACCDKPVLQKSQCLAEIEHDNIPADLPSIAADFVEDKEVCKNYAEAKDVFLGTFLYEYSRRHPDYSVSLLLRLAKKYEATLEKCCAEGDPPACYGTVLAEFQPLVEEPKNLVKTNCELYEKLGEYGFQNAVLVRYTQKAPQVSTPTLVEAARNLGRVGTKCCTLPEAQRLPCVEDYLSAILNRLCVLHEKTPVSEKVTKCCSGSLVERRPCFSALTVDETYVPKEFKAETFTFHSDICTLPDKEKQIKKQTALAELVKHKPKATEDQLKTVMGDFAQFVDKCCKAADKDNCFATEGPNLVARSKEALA
Source text: as §5

[5] = biological target: T3, Mouse Serum Albumin (Mus musculus, UniProt P07724); test: ThermoFluor thermal shift assay with mouse serum albumin; type: binding
T3 construct: The above albumins were prepared using method IV of Cohn et al. (J. Am. Chem. Soc. 69: 1753-1761, 1947) and purified with 1× crystallization; purchased Sigma A-3559
T3 sequence (P07724 25-608): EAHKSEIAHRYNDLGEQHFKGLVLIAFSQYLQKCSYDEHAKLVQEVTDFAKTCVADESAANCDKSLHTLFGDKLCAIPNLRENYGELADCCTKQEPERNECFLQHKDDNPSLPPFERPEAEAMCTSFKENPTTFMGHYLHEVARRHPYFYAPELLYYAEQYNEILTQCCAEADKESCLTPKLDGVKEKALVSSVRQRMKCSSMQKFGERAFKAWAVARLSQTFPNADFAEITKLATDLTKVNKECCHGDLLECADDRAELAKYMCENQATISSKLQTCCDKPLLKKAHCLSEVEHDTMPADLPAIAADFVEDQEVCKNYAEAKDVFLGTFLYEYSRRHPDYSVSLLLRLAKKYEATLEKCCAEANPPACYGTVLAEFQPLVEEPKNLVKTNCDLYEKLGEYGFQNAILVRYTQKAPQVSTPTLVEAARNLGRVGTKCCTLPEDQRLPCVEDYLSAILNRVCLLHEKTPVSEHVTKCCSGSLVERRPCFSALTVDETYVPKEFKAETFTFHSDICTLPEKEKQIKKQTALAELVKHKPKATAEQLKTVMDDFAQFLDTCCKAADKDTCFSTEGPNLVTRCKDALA
Source text: as §5

[6] = biological target: HSA (Homo sapiens, UniProt P02768); conditions: binding site on HSA from previous reports; cited from earlier work
HSA, sequence (P02768 25-609): as the sequence (P02768 25-609) above

[7] = Human Albumin (KD), Example 4, Table 3
[8] = classified from KD versus IC50 and % displacement of 1,8-ANS
[9] = HSA - KD, Example 3, Table 2, ThermoFluor, Equation 10b

Human Serum Albumin (HSA), sequence (P02768 25-609): as above

C[C@]12CCC(=O)C=C1C=C[C@@H]1[C@@H]2CC[C@@]2(C)[C@H]1CC[C@@]2(O)CCC(=O)O [Canrenoate, canrenoate]
pKd [1, 7]: 4.40 | Type of HSA Binding Interaction [1, 8]: Type 4 | % Displacement [2]: (33) % | pKd ([3]; Example 4, Table 3): < 4.20 | pKd ([4]; Example 4, Table 3): < 4.20 | pKd ([5]; Example 4, Table 3): < 4.20 | Reported Binding Site [6]: Site 1

CCCC(CCC)C(=O)O [Valproate, valproate]
pKd [1, 7]: < 4.20 | % Displacement [2]: (31) % | pKd ([3]; Example 4, Table 3): < 4.20 | pKd ([4]; Example 4, Table 3): < 4.20 | pKd ([5]; Example 4, Table 3): < 4.20

C=CC1=C(C)/C(=C/c2[nH]c(Cc3[nH]c(/C=C4\NC(=O)C(C)=C4C=C)c(C)c3CCC(=O)O)c(CCC(=O)O)c2C)NC1=O [Bilirubin, bilirubin]
pKd [1, 7]: 4.25 | % Displacement [2]: (11) % | pKd ([3]; Example 4, Table 3): 4.07 | pKd ([4]; Example 4, Table 3): < 3.92 | pKd ([5]; Example 4, Table 3): < 3.92

COc1cc(NS(=O)(=O)c2ccc(N)cc2)nc(OC)n1 [Sulfadimethoxine, sulfadimethoxine]
pKd [1, 7]: < 4.20 | Type of HSA Binding Interaction [1, 8]: Type 1 | pIC50 [2]: 4.02 | % Displacement [2]: (71) % | pKd ([3]; Example 4, Table 3): < 4.20 | pKd ([4]; Example 4, Table 3): 5.03 | pKd ([5]; Example 4, Table 3): 4.16 | Reported Binding Site [6]: Site 1

CCOC(=O)C(C)(C)Oc1ccc(Cl)cc1 [Clofibrate, clofibrate]
pKd [1, 7]: < 4.20 | % Displacement [2]: (10) % | pKd ([3]; Example 4, Table 3): < 4.20 | pKd ([4]; Example 4, Table 3): < 4.20 | pKd ([5]; Example 4, Table 3): < 4.20

N[C@@H](Cc1c[nH]c2ccccc12)C(=O)O [L-Tryptophan, L-tryptophan]
Type of HSA Binding Interaction [1]: Type 5 | pKd ([1]; Human Albumin (KD)): < 4.20 | pKd [3]: < 4.20 | pKd [4]: < 4.20 | pKd [5]: < 4.20 | Reported Binding Site [6]: Multiple sites

O=c1c(O)c(-c2ccc(O)c(O)c2)oc2cc(O)cc(O)c12 [Quercetin, quercetin]
pKd [1, 9]: 5.10 | pKd [1, 7]: < 4.20 | Type of HSA Binding Interaction [1, 8]: Type 1 | pIC50 [2]: 4.60 | % Displacement [2]: (51) % | % Displacement ([2]; listed as quercetin): about 51% | pKd ([4]; Example 4, Table 3): < 4.20 | pKd ([5]; Example 4, Table 3): < 4.20 | Reported Binding Site [6]: Site 1

CN1C(C(=O)Nc2ccccn2)=C(O)c2sccc2S1(=O)=O [Tenoxicam, tenoxicam]
pKd [1, 9]: 4.89 | pKd [1, 7]: 4.89 | pIC50 [2]: 4.45 | % Displacement [2]: (84) % | pKd ([3]; Example 4, Table 3): < 4.20 | pKd ([4]; Example 4, Table 3): 4.47 | pKd ([5]; Example 4, Table 3): < 4.20

CCC(Cc1c(I)cc(I)c(O)c1I)C(=O)O (stereo not shown) [Iophenoxate, iophenoxate]
pKd [1]: 7.36 | Type of HSA Binding Interaction [1, 8]: Type 1 | pIC50 [2]: 6.15 | % Displacement [2]: (129) % | pKd ([3]; Example 4, Table 3): 7.18 | pKd ([4]; Example 4, Table 3): 7.32 | pKd ([5]; Example 4, Table 3): 7.30 | Reported Binding Site [6]: Site 1

CCCNC(=O)NS(=O)(=O)c1ccc(Cl)cc1 [Chlorpropamide, chlorpropamide]
pKd [1, 9]: 4.09 | pKd [1, 7]: 4.46 | Type of HSA Binding Interaction [1, 8]: Type 4 | % Displacement [2]: (20) % | pKd ([3]; Example 4, Table 3): 4.38 | pKd ([4]; Example 4, Table 3): 4.53 | pKd ([5]; Example 4, Table 3): 3.96 | Reported Binding Site [6]: Site 1

Nc1ccc(S(=O)(=O)Nc2nccs2)cc1 [Sulfathiazole, sulfathiazole]
pKd [1, 7]: < 4.20 | Type of HSA Binding Interaction [1, 8]: Type 4 | % Displacement [2]: (40) % | pKd ([3]; Example 4, Table 3): < 4.20 | pKd ([4]; Example 4, Table 3): < 4.20 | pKd ([5]; Example 4, Table 3): < 4.20 | Reported Binding Site [6]: Site 1

CCC(Cc1c(I)cc(I)c(N)c1I)C(=O)O (stereo not shown) [Iodopanoate, iodopanoate]
pKd [1]: 6.20 | Type of HSA Binding Interaction [1, 8]: Type 3 | pIC50 [2]: 5.13 | % Displacement [2]: (83) % | pKd ([3]; Example 4, Table 3): 5.89 | pKd ([4]; Example 4, Table 3): 6.02 | pKd ([5]; Example 4, Table 3): 6.12 | Reported Binding Site [6]: Site 2

c1ccc2c(c1)[nH]c1cnccc12 [Norharmane, norharmane]
Type of HSA Binding Interaction [1]: Type 5 | pKd [1, 9]: 4.75 | pKd [1, 7]: 4.75 | pKd ([3]; Example 4, Table 3): < 4.20 | pKd ([4]; Example 4, Table 3): < 4.20 | pKd ([5]; Example 4, Table 3): < 4.20 | Reported Binding Site [6]: Site 2

CC(C(=O)O)c1ccc2c(c1)[nH]c1ccc(Cl)cc12 (stereo not shown) [Carprofen, carprofen]
pKd [1, 9]: 5.68 | pKd [1, 7]: 5.68 | Type of HSA Binding Interaction [1, 8]: Type 3 | pIC50 [2]: 5.08 | % Displacement [2]: (87) % | pKd ([3]; Example 4, Table 3): 5.54 | pKd ([4]; Example 4, Table 3): 5.82 | pKd ([5]; Example 4, Table 3): 5.96 | Reported Binding Site [6]: Site 2

NS(=O)(=O)c1cc2c(cc1Cl)N=CNS2(=O)=O [Chlorothiazide, chlorothiazide]
pKd [1, 7]: < 4.20 | Type of HSA Binding Interaction [1, 8]: Type 4 | % Displacement [2]: (12) % | pKd ([3]; Example 4, Table 3): < 4.20 | pKd ([4]; Example 4, Table 3): < 4.20 | pKd ([5]; Example 4, Table 3): < 4.20 | Reported Binding Site [6]: Site 2

CC(C(=O)O)c1ccc(-c2ccccc2)c(F)c1 (stereo not shown) [Flurbiprofen, flurbiprofen]
pKd [1, 9]: 5.68 | pKd [1, 7]: 5.68 | pKd ([1]; KD, Example 2, Table 1, from Tm over compound concentration (Equation 10b)): 5.57 | Type of HSA Binding Interaction [1, 8]: Type 3 | HSA Tm ([1]; compound 0.244 μM): 74.4 °C | HSA Tm ([1]; compound 0.488 μM): 74.1 °C | HSA Tm ([1]; compound 0.977 μM): 74.3 °C | HSA Tm ([1]; compound 1.95 μM): 74.4 °C | HSA Tm ([1]; compound 3.91 μM): 75.0 °C | HSA Tm ([1]; compound 7.81 μM): 75.1 °C | HSA Tm ([1]; compound 15.6 μM): 75.7 °C | HSA Tm ([1]; compound 31.3 μM): 76.1 °C | HSA Tm ([1]; compound 62.5 μM): 76.8 °C | HSA Tm ([1]; compound 125 μM): 78.2 °C | HSA Tm ([1]; compound 250 μM): 80.2 °C | pIC50 [2]: 3.81 | Binding to site I of albumin as indicated by 1,8-ANS fluorescence ([2]; Example 2, dose-dependent change of initial fluorescence): does not bind to site I | Fluorescent Signal ([2]; compound 0.244 μM): 110% | Fluorescent Signal ([2]; compound 0.488 μM): 105% | Fluorescent Signal ([2]; compound 0.977 μM): 102% | Fluorescent Signal ([2]; compound 1.95 μM): 104% | Fluorescent Signal ([2]; compound 3.91 μM): 118% | Fluorescent Signal ([2]; compound 7.81 μM): 106% | Fluorescent Signal ([2]; compound 15.6 μM): 111% | Fluorescent Signal ([2]; compound 31.3 μM): 108% | Fluorescent Signal ([2]; compound 62.5 μM): 101% | Fluorescent Signal ([2]; compound 125 μM): 109% | Fluorescent Signal ([2]; compound 250 μM): 105% | % Displacement [2]: (47) % | pKd ([3]; Example 4, Table 3): 5.73 | pKd ([4]; Example 4, Table 3): 5.53 | pKd ([5]; Example 4, Table 3): 5.42 | Reported Binding Site [6]: Site 2
